From patent US11484608B2, “Non-invasive assessment of hepatic mitochondrial metabolism by positional isotopomer NMR tracer analysis (PINTA)” (YALE UNIVERSITY, priority 2017, dated 2022) come the findings set out here.

This experiment has as its system hepatic glucose production, VPC and VCS (InsP3R-I signaling). Description: Acute 2 hr glucagon infusion in WT and liver-specific InsP3R-I KO mice. The experiment is classed as in vivo, mouse. The text has this:
All protocols were approved by the Yale University Animal Care and Use Committee. Liver-specific InsP3R-I KO mice were generated as described (Feriod, et al. Hepatology Communications 1, 23-35, 2017) and in all experiments, littermates were studied at 10-12 weeks of age. They were fed standard chow (Teklad #2018) and housed on a 12 hr light/dark cycle in the Yale Animal Resources Center. To knock down ATGL in a liver-specific manner, an adeno-associated virus targeting ATGL (Vector BioLabs, 10^12 gc per mouse) was administered by retro-orbital injection four weeks prior to studies. Male mice were used for in vivo studies, while female mice were used for in vitro studies, unless otherwise specified. One week prior to in vivo studies, mice underwent surgery under isoflurane anesthesia to place a catheter in the jugular vein. Post-surgical recovery was confirmed by regaining the pre-surgical body weight prior to any in vivo studies. They were fasted overnight, unless otherwise stated, prior to in vivo studies. […] Mice were euthanized using IV pentobarbital at the conclusion of the terminal study.
In the rat studies, blood was collected from the jugular venous catheter. In both species, samples were immediately centrifuged (12,000 rpm) to separate plasma from red blood cells. PINTA analysis of hepatic mitochondrial fluxes was employed in both rats and mice (see Example 1). Briefly, mice were infused with a two-hour primed (5 min, 3×)-continuous infusion of [3-^13C] lactate (40 μmol kg^−1 min^−1) and [1,2,3,4,5,6,6-^2H7] glucose (0.1 mg kg^−1 min^−1). Rats were infused with lactate at the same rate, as well as [3-^3H] glucose (0.1 mCi kg^−1 min^−1). At the conclusion of the study, animals were euthanized with IV pentobarbital.
Total glucose turnover (i.e. hepatic glucose production) was measured by determining the specific activity of [^3H] glucose in plasma using a scintillation counter, and the VPC/VHGP ratio was calculated using the equation
[formula] and calculated absolute VCS by dividing VPC by VPC/VCS. The derivations of each equation are described in detail in Example 1. The possible contribution of [^13C] bicarbonate to label the TCA cycle was corrected for as follows. Liver [^13C] bicarbonate enrichment was measured by GC-MS (HP-1 column: 12 m×0.2 mm×0.33 μm film, isothermal: 110° C.). Liver tissue (˜[…]) was placed in a GC-MS vial, purged with N2 gas, and sealed. To each sample, a saturated aqueous solution of citric acid (50 μl) was injected into the vial through the cap. After ten minutes, CO2 was sampled from the head-space and ions with m/z 44 and 45 daltons were monitored using electron impact ionization.
Plasma glucose concentrations were measured using a YSI Glucose Analyzer. […] Plasma NEFA concentrations were measured using the Wako NEFA assay, while plasma glycerol and plasma and liver amino acid concentrations were measured by GC/MS. […] Protein concentrations were measured by Western blot, using antibodies from Santa Cruz (PC, PEPCK, CAMKII), Cell Signaling (ATGL, pCAMKIV, CAMKIV, pCRTC2, CRTC2, pACC, ACC, pAMPK, AMPK, pHSL, HSL, GAPDH, and β-actin), Novus Biologicals (pCAMKII), Abcam (pATGL), LSBio (pInsP3R-I), and BD Transduction Laboratories (InsP3R-II, InsP3R-III, PKCε).

As to glucagon, for the setting “InsP3R-I-dependent, CAMKIV not”, the “hepatic CAMKII phosphorylation” value is “stimulated”. The “increases in rates of HGP” value (PINTA, acute glucagon infusion) is on record as ~25%. The “increase in InsP3R-I phosphorylation” value (WT livers) is “two-fold”. Besides, where the note is “WT mice”, the “increase in hepatic mitochondrial oxidation (VCS)” value is listed as “five-fold” and the “plasma non-esterified fatty acid (NEFA) concentrations” value is on record as “reduced”. The “increase in hepatic ATGL S406 phosphorylation” value (WT mice in vivo, not InsP3R-I KO) is recorded as “three-fold”. Further, the “plasma glucose and insulin concentrations” value (WT mice, acute glucagon infusion) is “modest increase”. Besides, where the note is “WT mice, not InsP3R-I KO”, the “increase in hepatic pyruvate dehydrogenase flux (VPDH)” value is reported as 7 fold. Moreover, where the note is “acute glucagon infusion”, the “hepatic malonyl-CoA content” value was “independently of any changes”; the “increases in hepatic long-chain acyl-CoA and acetyl-CoA content” value is on record as 35-60%. Moreover, where the note is “acute glucagon study”, the “VPK as percentage of hepatic VPC flux” value is on record as 15-35%. For the same substance, for the setting “both genotypes”, the “cAMP concentrations, protein kinase A activity, CRTC2 phosphorylation (liver)” value was “increased” and the “hormone-sensitive lipase (HSL) phosphorylation” value was “increased”. Also, the hepatic mitochondrial oxidation entry (liver-specific InsP3R-I knockout mice) is given as “failed to exhibit any increases”. Moreover, under “mice infused with glucagon”, the “pyruvate kinase flux (VPK)” value is given as “without any difference”.
